Laboratory results published in patent US11400106B2, “Methods for inhibiting microbe growth” (priority 2018, dated 2022).
Read-outs that look alike come from different tables or passages of the source.

Assays:
E. coli [1] = test: Checkerboard microdilution with sodium bicarbonate against E. coli; assay type: cell-based, Escherichia coli
Protocol: (§1) In the following experiments, bacterial cells were cultured in 96-well microtiter plates in cation-adjusted Mueller-Hinton Broth (MHB) for 18 h at 37° C. The main strains used were E. coli (K-12 BW25113) (placed in stationary incubator) and S. aureus (Newman Strain) (incubated at 250 r.p.m). Knockout strains (ΔtolcC and ΔychM) were used from the Keio knockout collection (Baba et al., Construction of Escherichia coli K-12 in-frame, single-gene knockout mutants: the Keio collection. Mol Syst Biol 2, 2006 0008, doi:10.1038/msb4100050 (2006)). For MIC determination and checkerboard analyses, Clinical & Laboratory Standards Institute (CLSI) protocol was used. […] DiSC3 loading of S. aureus cells was performed as previously described (Farha et al., Collapsing the proton motive force to identify synergistic combinations against Staphylococcus aureus. Chemistry & biology 20, 1168-1178, doi:10.1016/j.chembiol.2013.07.006 (2013)). CCCP concentration of 20 μM was used. pH adjustments were made by addition of HCl or NaOH. INT assay and ATP bioluminescence assays were performed as previously described (Farha et al., Collapsing the proton motive force to identify synergistic combinations against Staphylococcus aureus. Chemistry & biology 20, 1168-1178, doi:10.1016/j.chembiol.2013.07.006 (2013)). For chemical-genomic studies, the Keio library was grown overnight in cation-adjusted MHB broth, in 384-well plates. From these, treatment plates (25 mM sodium bicarbonate, or a sterile water control) were inoculated and grown for 15 hours at 37° C., in a stationary incubator. Data was normalized according to Mangat et al (Mangat et al., Rank ordering plate data facilitates data visualization and normalization in high-throughput screening. J Biomol Screen 19, 1314-1320, doi:10.1177/1087057114534298 (2014)), with gene products and GO terms mined from EcoCyc. The GFP promoter library (Keseler et al., EcoCyc: fusing model organism databases with systems biology. Nucleic Acids Res 41, D605-612, doi:10.1093/nar/gks1027 (2013)) was grown for 18 hours at ambient temperature with the same inoculation strategy as with the Keio collection. The analysis pipeline of Zaslaver et al (Zaslaver et al., A comprehensive library of fluorescent transcriptional reporters for Escherichia coli. Nat Methods 3, 623-628, doi:10.1038/nmeth895 (2006)) was used to generate maps of promoter activity, from which lists of promoters with increased or decreased activity were compiled.
(§2) The effect of sodium bicarbonate on the activity of various antibacterial agents was investigated. Clinical isolates of various bacteria were obtained from the American Type Culture Collection (“ATCC”) and the International Health Management Associates (“IHMA”). Fractional inhibitory concentration indices (FICIs) were determined by setting up standard checkerboard broth microdilution assays in 96-well microtiter plates with serially diluted 8 (or 10) concentrations of each drug (sodium bicarbonate and the antibacterial agent). The protocol for checkerboard analyses was based on the CLSI guidelines. Plates were incubated at 37° C. for 18 hours, and optical density was read at 600 nm. At least 3 replicates were done for each query compound.
(§3) The FIC index (FICI) is the sum of the two FICs. Chemical-chemical interactions with ΣFIC of less or equal to 0.5 were deemed synergistic.
(§4) As validation, three of the antibiotic agents were further tested with checkerboard analyses. Checkerboard broth microdilution assays were set up in 96-well microtiter plates with serially diluted 8 (or 10) concentrations of each compound (sodium bicarbonate and the antibiotic). The protocol for checkerboard analyses was based on the CLSI guidelines. Plates were incubated at 37° C. for 18 hours, and optical density was read at 600 nm. At least 3 replicates were done for each query compound.

S. aureus [2] = test: Checkerboard microdilution with nigericin; assay type: cell-based, Staphylococcus aureus
Excerpt: Shown are microdilution checkerboard analyses, where the extent of inhibition is shown as a heat plot, such that the darkest checkerboard square represents full bacterial growth.

S. aureus [3] = test: microbe, parasite or virus in culture; conditions: for effect of 25 mM sodium bicarbonate on antibacterial activity: S. aureus, result in words; for MIC: Staphylococcus aureus, 18 h, read-out: MIC, S. aureus, MHB−
E. coli [4] = test: microbe, parasite or virus in culture; assay type: cell-based, Escherichia coli; conditions: for MIC: Escherichia coli, 18 h, read-out: MIC, E. coli, MHB−
S. aureus [5] = test: Checkerboard microdilution with sodium bicarbonate against S. aureus; assay type: cell-based, Staphylococcus aureus
Protocol: as §1, §2, §3, §4

P. aeruginosa = test: Susceptibility testing of P. aeruginosa clinical isolates (n=92); assay type: cell-based, Pseudomonas aeruginosa; conditions: P. aeruginosa (n=92); comparators in the absence of bicarbonate
Protocol: (§5) This study included one hundred (n=100) clinical isolates of methicillin-resistant Staphylococcus aureus (MRSA) and ninety-two (n=92) clinical isolates of P. aeruginosa. All samples were collected from patients at Hamilton Health Sciences hospitals (Hamilton, Ontario, Canada). Isolates, regardless of site of infection, were selected for study if they were resistant to three or more antibiotics. The isolates were cultured on plates and subsequently tested for antimicrobial susceptibility. Initial culture and antibiotic susceptibility testing were performed by Hamilton General Hospital General Microbiology Laboratory using a VITEK 2 Automated System and its Advanced Expert System (bioMerieux) and were compliant with Clinical & Laboratory Standards Institute (CLSI) antibiotic susceptibility testing formulations. Both quantitative minimum inhibitory concentration (MIC) and CLSI breakpoints were reported for each antibiotic. Additionally, a total of 7 conjunctival-sourced ocular isolates of Streptococcus pneumoniae collected by the International Health Management Associates (IHMA) from various locations in the United States were used in the study.
(§6) Antimicrobial sensitivity of the pathogenic strains was determined in compliance with the CLSI protocol. Mueller-Hinton agar plates were used to streak out bacterial species and the direct colony suspension method for inoculum preparation was used to make a suspension of the organism in saline to the density of a McFarland 0.5 turbidity standard. Cation-adjusted Mueller-Hinton broth (CA-MHB) manufactured according to ISO technical standard was used for susceptibility testing in standard 96-well microdilution plates. All antibiotics were purchased as powders from Sigma-Aldrich Canada Co. (Oakville, Canada) and dissolved in appropriate solvent to provide stock solutions as instructed by the manufacturer. Desired test antibiotic solutions were diluted in solvent at a highest test concentration resulting in 256 μg/mL. Where sodium bicarbonate was used, aqueous sterile-filtered sodium bicarbonate solution (7.5% stock) from Sigma-Aldrich Canada Co. (Oakville, Canada) was diluted to the desired concentration in CAMHB. Plates were incubated for 18 hours at 37° C. and read at 600 nm on a Tecan, infinite M1000 PRO plate reader. In accordance with CLSI, methods with appropriate medium supplements for fastidious streptococci (2.5% lysed horse blood, Innovative Research, Inc., Novi, Mich.) were used. […] All MICs in the study were conducted in duplicate.

[6] = test system: methicillin-resistant Staphylococcus aureus (MRSA); test: Susceptibility testing of MRSA clinical isolates (n=100); assay type: cell-based; conditions: MRSA (n=100); comparators in the absence of bicarbonate
Protocol: as §5, §6

S. aureus [7] = test: FIC index of pentamidine combined with various salts (checkerboard); assay type: cell-based, Staphylococcus aureus; conditions: combination of pentamidine isethionate with each salt; FICI≤0.5 synergy, 1-2 additivity, >4 antagonism
Protocol: as §1

[8] = Excerpt: PMF is driven in part by a transmembrane gradient where the periplasmic side of the membrane has a greater concentration of protons. Thus, the addition of buffering agents to alter the external pH can have a significant effect on PMF. […] Steps were taken throughout the studies to confirm that bicarbonate supplemented media were at pH 7.4, and adjusted where necessary.
[9] = MHB in the absence of sodium bicarbonate
[10] = antibiotic agents, MHB in the absence of sodium bicarbonate
[11] = E. coli, salt at 25 mM, pH adjusted to 7.4
[12] = antibiotic agents, fold shift in MIC, MHB− vs MHB+

## C[C@@H]1O[C@@H]1P(=O)(O)O [Fosfomycin]
E. coli [1]
  interaction with sodium bicarbonate (checkerboard): suppressed
S. aureus [2]
  interaction with nigericin (checkerboard): antagonistic interactions
S. aureus [3]
  MIC, S. aureus, MHB+: 64
  effect of 25 mM sodium bicarbonate on antibacterial activity: suppressed
  MIC: 16 mg/L
E. coli [4]
  effect of 25 mM sodium bicarbonate on antibacterial activity: suppressed
E. coli [4]; [9]
  MIC: 4 mg/L

## c1cc2c(cc1C1CCCCC1)c1c3n2CCN=C3CCC1 [I1]
S. aureus [5]
  interaction with sodium bicarbonate (checkerboard): synergistic interactions

## COc1ccc(-c2n(CC(=O)OC3CC(C)CCC3C(C)C)c3ccccc3[n+]2C)cc1.[Cl-] (centres unmarked) [I2]
S. aureus [5]
  interaction with sodium bicarbonate (checkerboard): synergistic interactions

## CC1=CCCC2C1CCC(C)C2(C)CC/C(C)=C/Cn1c[n+](C)c2c(N)ncnc21.[Cl-] (centres unmarked) [I3]
S. aureus [5]
  interaction with sodium bicarbonate (checkerboard): synergistic interactions

## COc1c(N2C[C@@H]3CCCN[C@@H]3C2)c(F)cc2c(=O)c(C(=O)O)cn(C3CC3)c12 [Moxifloxacin]
P. aeruginosa
  MIC90 comparison of topical ophthalmic antibiotics: resistance
[6]
  MIC90 comparison of topical ophthalmic antibiotics: resistance
S. aureus [3]
  MIC: 0.125 mg/L
E. coli [4]; [9]
  MIC: 0.0313 mg/L

## CO[C@@H]1[C@@H](OC(N)=O)[C@@H](O)[C@H](Oc2ccc3c(O)c(NC(=O)c4ccc(O)c(CC=C(C)C)c4)c(=O)oc3c2C)OC1(C)C [Novobiocin]
E. coli [1]
  interaction with sodium bicarbonate (checkerboard): suppressed
S. aureus [2]
  interaction with nigericin (checkerboard): antagonistic interactions
S. aureus [3]
  MIC, S. aureus, MHB+: 0.5
  effect of 25 mM sodium bicarbonate on antibacterial activity: suppressed
  MIC: 0.031 mg/L
E. coli [4]
  effect of 25 mM sodium bicarbonate on antibacterial activity: suppressed
E. coli [4]; [9]
  MIC: 32 mg/L

## CC[C@H]1OC(=O)[C@H](C)[C@@H](O[C@H]2C[C@@](C)(OC)[C@@H](O)[C@H](C)O2)[C@H](C)[C@@H](O[C@@H]2O[C@H](C)C[C@H](N(C)C)[C@H]2O)[C@](C)(O)C[C@@H](C)/C(=N\OCOCCOC)[C@H](C)[C@@H](O)[C@]1(C)O [Roxithromycin]
E. coli [1]
  interaction with sodium bicarbonate (checkerboard): synergistic interactions
S. aureus [3]
  MIC, S. aureus, MHB+: 0.5 μg of antimicrobial agent/mL of buffer
  MIC: 4 mg/L
E. coli [4]
  MIC, E. coli, MHB+: 16 μg of antimicrobial agent/mL of buffer
E. coli [4]; [10]
  MIC: > 128 mg/L
S. aureus [5]
  interaction with sodium bicarbonate (checkerboard): synergistic interactions

## [F-].[Na+] [Sodium fluoride]
S. aureus [7]
  FIC Index (with pentamidine in S. aureus): 1
E. coli [4]; [11]
  MIC of dirithromycin in the presence of the salt: 128 mg/L

## O=[N+]([O-])[O-].[Na+] [Sodium nitrate]
S. aureus [7]
  FIC Index (with pentamidine in S. aureus): 2
E. coli [4]; [11]
  MIC of dirithromycin in the presence of the salt: 128 mg/L

## O=P(O)(O)O [Sodium phosphate]
S. aureus [7]
  FIC Index (with pentamidine in S. aureus): >8
E. coli [4]
  MIC of dirithromycin in the presence of the salt: >128 mg/L

## O=S(=O)([O-])[O-].[Na+].[Na+] [Sodium sulfate]
S. aureus [7]
  FIC Index (with pentamidine in S. aureus): 2
E. coli [4]
  MIC of dirithromycin in the presence of the salt: 128 mg/L

## [H]/N=C(/N)N[C@H]1[C@H](O)[C@@H](O)[C@H](O[C@@H]2O[C@@H](C)[C@](O)(C=O)[C@H]2O[C@@H]2O[C@@H](CO)[C@H](O)[C@@H](O)[C@@H]2NC)[C@@H](N/C(N)=N\[H])[C@@H]1O [Streptomycin]
E. coli [1]
  interaction with sodium bicarbonate (checkerboard): synergistic interactions
S. aureus [3]
  MIC, S. aureus, MHB+: 0.5 μg of antimicrobial agent/mL of buffer
  MIC: 2 mg/L
E. coli [4]
  MIC, E. coli, MHB+: 0.12 μg of antimicrobial agent/mL of buffer
E. coli [4]; [10]
  MIC: 0.5 mg/L
S. aureus [5]
  interaction with sodium bicarbonate (checkerboard): synergistic interactions

## CN(C)C(=O)C(CCN1CCC(O)(c2ccc(Cl)cc2)CC1)(c1ccccc1)c1ccccc1 [loperamide]
E. coli [1]
  interaction with sodium bicarbonate (checkerboard): synergistic interactions

## O=P([O-])([O-])[O-].[Na+].[Na+].[Na+] [trisodium phosphate]
[8]; pH not adjusted (pH~10)
  effect on activity of dirithromycin, pH not adjusted: potentiated the activity of dirithromycin
[8]; pH of the medium adjusted to 7.2
  effect on activity of dirithromycin, pH adjusted: loss of synergy

## CC(C)[C@@H]1NC(=O)[C@H](C)OC(=O)[C@@H](C(C)C)NC(=O)[C@@H](C(C)C)OC(=O)[C@H](C(C)C)NC(=O)[C@H](C)OC(=O)[C@@H](C(C)C)NC(=O)[C@@H](C(C)C)OC(=O)[C@H](C(C)C)NC(=O)[C@H](C)OC(=O)[C@@H](C(C)C)NC(=O)[C@@H](C(C)C)OC1=O [valinomycin]
S. aureus [5]
  interaction with sodium bicarbonate (checkerboard): synergistic interactions

## Spiramycin
E. coli [1]
  interaction with sodium bicarbonate (checkerboard): synergistic interactions
S. aureus [3]; [10]
  MIC, S. aureus, MHB−: 16 μg of antimicrobial agent/mL of buffer
S. aureus [3]; antibiotic agents, MHB in the presence of 25 mM sodium bicarbonate
  MIC, S. aureus, MHB+: 0.5 μg of antimicrobial agent/mL of buffer
S. aureus [3]; [12]
  Fold, S. aureus: 16
E. coli [4]
  MIC, E. coli, MHB+: 64 μg of antimicrobial agent/mL of buffer
E. coli [4]; [10]
  MIC, E. coli, MHB−: >128 μg of antimicrobial agent/mL of buffer
E. coli [4]; [12]
  Fold, E. coli: 8
S. aureus [5]
  interaction with sodium bicarbonate (checkerboard): synergistic interactions
